# From patent US20240124714A1, “NEAR INFRARED DYES FOR BIOLOGICAL IMAGING AND OPTOELECTRONIC DEVICES” (Mississippi State University, priority 2022, published 2024)
# Legend:
# [1] = Absorption spectra (maximum absorption wavelength); assay type: physicochemical
# Method: All chemicals and solvents were purchased from commercial suppliers and used without further purification unless other-wise specified. ^1H NMR (500 MHz) and ^13C NMR ([…]) spectra were recorded in deuterated solvents on a Bruker ADVANCE 500 NMR Spectrometer. J values are expressed in Hz and quoted chemical shifts are in ppm downfield from tetramethylsilane (TMS) reference using the residual protonated solvents as an internal standard. The signals have been designated as follows: s (singlet), d (doublet), t (triplet), m (multiplets). All the ^13C NMR are proton decoupled. High resolution mass spectra (HRMS) were determined on Broker-micrOTOF-Q II Mass Spectrometer. Concentrations are given in μM. Absorption spectra were acquired using a Cary 5000 UV-Vis-NIR spectrophotometer in a 1 cm quartz cell.
# The IR spectrums of the closed (Compound 3) and opened (XanthCR-880) forms of the dye are very distinct. The IR spectrums were obtained in dichloromethane (DCM) and dimethyl sulfoxide (DMSO) (FIG. 2). The maximum absorption wavelength (λabs) of the closed form (Compound 3) is 372 nm. However, when the dye was trapped in the opened form as the ethyl ester (XanthCR-880), the λabs shifted to 880 nm in DCM and 890 nm in DMSO, both of which are at the edge of the NIR I region and trail into the NIR II region.
# [2] = Fluorescence (fluorescent quantum yield attempt); assay type: physicochemical; conditions: attempts to determine the fluorescent quantum yield
# Description: Fluorescence spectra were acquired using a custom-built setup with discrete excitation wavelengths ranging from 226 nm to 1059 nm with a temperature range from 4.2 K to 300 K using a liquid He bath cryostat. Alternatively, a Horiba QuantaMaster 8075-21 spectrofluorometer with xenon lamp excitation and liquid nitrogen cooled indium gallium arsenide solid state detector could be used. […] excitation was chosen to coincide with a Xe emission peak.
# [3] = Stability of the dye against glutathione (change in absorption at 880 nm); assay type: in vitro ADME; conditions: 17 μM dye, 40% DMSO/60% PBS, 10 mM reduced glutathione, after 30 min
# Method: (§1) FIGS. 3A-3B show absorption studies depicting the stability of XanthCR-880 (20 μM) to the treatment of glutathione (10 mM) (FIG. 3A) and esterase (5 units) (FIG. 3B).
# The XanthCR-880 dye was also shown to have excellent stability. The stability of XanthCR-880 dye was tested against glutathione, which is a potential reducing agent in biological media. The XanthCR-880 dye (17 μM) was prepared in 40% DMSO/60% PBS solution with 10 mM reduced glutathione and evaluated the change in the maximum absorption at 880 nm. The 10 mM concentration of reduced glutathione was selected to reflect the highest reported levels found in the body (i.e., liver). There was no change observed in the absorbance of the dye after 30 min.
# [4] = system: porcine liver esterase; experiment: Stability in the presence of esterase (absorbance); assay type: in vitro ADME; conditions: room temperature, 30 min
# Method: as §1
# (§2) The XanthCR-880 dye was evaluated for its compatibility as a PA contrast agent in chloroform (FIG. 3C) and PBS buffer and observed that the strongest intensity (XPA) was at 890 nm and 865 nm, respectively.
# [5] = Photoacoustic spectrum (PA contrast agent compatibility); assay type: physicochemical
# Method: Photoacoustic A imaging was performed on an iThera Medical MSOT inVision 128 tomographer.
# as §2
# [6] = Photobleaching under continuous irradiation; assay type: physicochemical; conditions: continuous irradiation at λPA for 60 min; 20 μM in CHCl3
# Description: Ideally PA contrast agents are photostable. When PA contrast agent are used in studies, they may be subjected to multiple imaging sessions, and as such are ideally resistant to photobleaching.
"maximum absorption wavelength (λabs) ([1]; closed form, spectra obtained in DCM and DMSO, solvent of this value not stated) [nm]",change in the absorbance of the dye (maximum absorption at 880 nm) [3],change in the absorbance [4],wavelength of strongest photoacoustic intensity (λPA) ([5]; in PBS buffer) [nm],"wavelength of strongest photoacoustic intensity (λPA) ([5]; in chloroform (CHCl3), 20 μM) [nm]",decrease of PA signal (photobleaching) [6] [%],maximum absorption wavelength (λabs) ([1]; in DCM) [nm],maximum absorption wavelength (λabs) ([1]; in DMSO) [nm],absorption maximum ([1]; solvent not stated) [nm],Compound,fluorescence [2]
372,,,,,,,,,O=C1OC2(c3ccc(-c4ccc(N5CCCCC5)s4)cc3Oc3cc(-c4ccc(N5CCCCC5)s4)ccc32)c2ccccc21 [Compound 3],
,no change,no significant change,865,890,45,880,890,880,"CCOC(=O)c1ccccc1C1=c2cc/c(=C3/C=CC(=[N+]4CCCCC4)S3)cc2Oc2cc(-c3ccc(N4CCCCC4)s3)ccc21.[Cl-] [XanthCR-880, 1-{5-[(3E)-9-[2-(Ethoxycarbonyl)phenyl]-6-[5-(piperidin-1-yl)thiophen-2-yl]-3H-xanthen-3-ylidene]-2,5-dihydrothiophen-2-ylidene}-1λ5-piperidin-1-ylium chloride]",sufficient fluorescence for brightness imaging
